# Measured values published in patent publication US7122624B2, “Parathyroid hormone receptor ligands” (The United States of America as represented by the …, priority 1999, dated 2006).
# Where two headings read alike, the source gives them in different places. Non-standard residues stand in square brackets, D forms with d. Residues, ends and D or L forms follow the SMILES beside them. Nle = CCCC[C@H](N)C(=O)O
# Legend:
# rat PTH2 receptor = target: T1, rat PTH2 receptor (Rattus norvegicus, UniProt P70555); experiment: cAMP accumulation in COS-7 cells transiently expressing the rat PTH2 receptor; format: cell-based
# T1 construct: expressed in transfected cells; host or cells: COS-7 (transient)
# T1 sequence (P70555 25-546): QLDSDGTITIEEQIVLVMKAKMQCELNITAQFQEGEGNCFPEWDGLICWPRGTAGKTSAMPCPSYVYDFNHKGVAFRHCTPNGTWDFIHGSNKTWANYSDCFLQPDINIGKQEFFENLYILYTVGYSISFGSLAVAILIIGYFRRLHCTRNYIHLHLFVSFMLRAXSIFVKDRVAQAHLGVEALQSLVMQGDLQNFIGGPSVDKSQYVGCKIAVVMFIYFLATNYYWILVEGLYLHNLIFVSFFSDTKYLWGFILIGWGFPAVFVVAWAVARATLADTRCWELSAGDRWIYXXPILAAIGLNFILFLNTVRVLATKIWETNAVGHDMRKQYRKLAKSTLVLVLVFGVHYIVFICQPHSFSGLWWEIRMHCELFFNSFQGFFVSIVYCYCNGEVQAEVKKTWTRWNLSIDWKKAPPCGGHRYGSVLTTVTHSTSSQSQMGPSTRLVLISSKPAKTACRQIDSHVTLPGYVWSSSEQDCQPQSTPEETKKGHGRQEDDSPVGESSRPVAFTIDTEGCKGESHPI
# Method: To express rat PTH2 receptor in cell culture, a rat hypothalamus cDNA library was prepared in the vector CDM7 amp as described. […] A clone was isolated from a single positive pool by colony hybridization using the same ^32P labeled probe.
# (§1) Cell culture supplies were obtained from Life Technologies (Frederick, Md.) except for fetal bovine serum which was from Sigma (St. Louis, Mo.).
# (§2) The constructs containing the cDNA sequences of the human PTH2 receptor and β-galactosidase have been previously described.
# (§3) All peptides were purchased from either Bachem (Torrance, Calif.) or Peninsula Laboratories (Belmont, Calif.). The letters ‘b,’ ‘r’ and ‘h’ designate the peptide sequence as bovine, rat and human, respectively. […] [α-^32P]dCTP was purchased from ICN Biomedicals (Costa Mesa, Calif.). Bovine hypothalamic extract was prepared by acid extraction, gel-filtration and reverse-phase HPLC as previously described. […] Antagonist inhibitory potency was examined by measuring the concentration-dependence of rPTH(1–34)-stimulated cAMP accumulation in the presence and absence of antagonist.
# (§4) Statistical comparison of two sample means was evaluated using the two-tailed Student's t-test. […] Antagonist inhibitory potency was quantified using the pA2, value, the negative logarithm of the concentration of antagonist that produces a two-fold decrease of agonist EC50. This was calculated using the following equation: pA2=((EC50/EC50′)−1)−log [antagonist]
# PTH2 receptor [1] = target: T2, PTH2 receptor (Homo sapiens, UniProt P49190); experiment: cAMP accumulation in COS-7 cells transiently expressing the human PTH2 receptor; format: cell-based; set-up: expressed in transfected cells; host or cells: COS-7 (transient)
# T2 sequence (P49190 25-550): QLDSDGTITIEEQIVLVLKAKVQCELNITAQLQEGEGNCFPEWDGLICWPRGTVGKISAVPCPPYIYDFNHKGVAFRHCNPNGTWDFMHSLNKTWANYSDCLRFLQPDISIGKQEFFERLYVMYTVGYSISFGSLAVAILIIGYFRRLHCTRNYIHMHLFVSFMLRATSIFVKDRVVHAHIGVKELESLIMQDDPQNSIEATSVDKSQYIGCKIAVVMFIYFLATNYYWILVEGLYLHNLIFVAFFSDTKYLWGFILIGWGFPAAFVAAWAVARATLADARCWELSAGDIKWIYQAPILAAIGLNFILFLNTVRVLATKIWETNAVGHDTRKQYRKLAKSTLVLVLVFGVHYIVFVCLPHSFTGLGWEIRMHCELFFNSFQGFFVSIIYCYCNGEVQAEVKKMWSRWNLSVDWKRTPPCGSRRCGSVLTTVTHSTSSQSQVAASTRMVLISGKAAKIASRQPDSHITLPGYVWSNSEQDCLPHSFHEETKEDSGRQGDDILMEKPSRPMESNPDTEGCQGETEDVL
# Text: as §1, §2, §3, §4
# PTH2 receptor [2] = target: T2, PTH2 receptor; experiment: Radioligand displacement binding to HEK293 cell membranes expressing the human PTH2 receptor
# Method: (§5) In these assays the binding of a range of concentrations of an unlabeled ligand was measured by displacement of radioligand binding. Three methods were employed. An assay employing centrifugation to separate bound and free radioligand was used to accurately measure ligand binding parameters. A higher-throughput method employing rapid filtration was used to generate comparative ligand binding data. […] In these assays a very low concentration of radioligand was used so that the IC50 closely approximates the ligand affinity.
# (§6) In the centrifugation assay cell membranes (45–50 μg), radioligand (100,000–300,000 cpm) and unlabeled ligand were incubated in a final volume of 1 ml assay buffer (20 mM HEPES, 100 mM NaCl, 1 mM EDTA, 3 mM MgSO4 pH 7.5, supplemented with 0.3% non-fat dried milk powder, 100 μM AEBSF and 1 μg/ml bacitracin) for two hours at 21° C. Membranes were collected at 18,000×g, the surface of the pellet gently washed and the radioactivity counted as described in Examples. […] Less than 20% of the total radioligand added was bound within the membrane pellet. […]
# (§7) For inhibition of radioligand binding, y is the cpm bound at a given unlabeled ligand concentration, min is non-specific binding (measured in the presence of a high concentration of the unlabeled version of the radiolabeled ligand) and max is total binding (measured in the absence of unlabeled ligand). […]
# human PTH1 receptor [3] = target: T3, human PTH1 receptor (Homo sapiens, UniProt Q03431); experiment: cAMP accumulation in COS-7 cells transiently expressing the human PTH1 receptor; settings: 20% human plasma
# T3 sequence (Q03431 27-593): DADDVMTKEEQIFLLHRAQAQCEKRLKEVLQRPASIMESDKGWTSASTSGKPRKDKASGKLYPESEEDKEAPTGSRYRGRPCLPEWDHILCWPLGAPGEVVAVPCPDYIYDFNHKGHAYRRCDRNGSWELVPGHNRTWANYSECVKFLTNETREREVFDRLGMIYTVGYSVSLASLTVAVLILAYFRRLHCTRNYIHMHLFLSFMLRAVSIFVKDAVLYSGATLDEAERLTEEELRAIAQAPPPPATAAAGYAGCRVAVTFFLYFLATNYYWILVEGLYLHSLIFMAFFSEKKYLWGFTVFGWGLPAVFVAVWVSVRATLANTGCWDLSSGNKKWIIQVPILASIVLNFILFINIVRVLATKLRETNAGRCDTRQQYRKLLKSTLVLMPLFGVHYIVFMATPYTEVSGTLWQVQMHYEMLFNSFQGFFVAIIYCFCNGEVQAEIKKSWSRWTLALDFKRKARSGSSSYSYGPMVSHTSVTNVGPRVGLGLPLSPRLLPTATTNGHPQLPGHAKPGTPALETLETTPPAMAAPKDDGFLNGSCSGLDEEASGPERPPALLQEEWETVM
# Method: COS-7 cells were grown as previously described in Clark et al. For cAMP accumulation assays COS-7 cells were transfected as previously described in Clark et al. except that transfections were performed in 10 cm tissue culture dishes using 10 μg of plasmid DNA. The cells were transferred following trypsinization to 96-well plates at a density of 50,000 cells/well the following day. Cells were used for cAMP accumulation assays three days after transfection.
# Ligand-stimulated accumulation of cAMP was measured as described in Examples, using a radioimmunoassay to quantify cAMP (Clark et al., supra).
# Slightly different procedures were used depending on the experimental paradigm. […] This buffer was removed and replaced with 40 μl fresh buffer. Test agents were added in a volume of 10 μl and the cells incubated for an additional 40 min at 37° C. The assay was then terminated by the addition of 50 μl 0.1 N HCl, 0.1 mM CaCl2. […] After a further 40 minutes at 37° C. the assay was terminated as described above. […] The buffer was removed and the following solutions added sequentially: 30 μl buffer containing plasma, 10 μl antagonist in buffer and 10 μl rPTH(1–34) in buffer. […] The plasma supernatant was collected and stored in aliquots at −80° C. before use. cAMP was quantified using a RIA as previously described (Clark et al., supra). […]
# human PTH1 receptor [4] = target: T3, human PTH1 receptor; experiment: Radioligand displacement binding to HEK293 cell membranes expressing the human PTH1 receptor; settings: presence of 10 μM GTPγS
# Method: as §5, §6, §7
# [5] = rat receptor response relative to human PTH2 receptor response measured in parallel
# [6] = 1 μM antagonist against rPTH(1–34)-stimulated cAMP
compound,measurement,setting,value
"CCCC[C@H](NC(=O)[C@H](CO)NC(=O)[C@H](CO)NC(=O)[C@H](CC(C)C)NC(=O)[C@H](Cc1c[nH]cn1)NC(=O)[C@H](CCCCN)NC(=O)CNC(=O)[C@H](CC(C)C)NC(=O)[C@H](CC(N)=O)NC(=O)[C@H](Cc1c[nH]cn1)NC(=O)[C@H](CCCC)NC(=O)[C@H](Cc1ccccc1)NC(=O)[C@H](CCC(N)=O)NC(=O)[C@@H](NC(=O)[C@H](CCC(=O)O)NC(=O)[C@H](CO)NC(=O)[C@@H](NC(=O)[C@H](C)N)C(C)C)[C@@H](C)CC)C(=O)N[C@@H](CCC(=O)O)C(=O)N[C@@H](CCCNC(=N)N)C(=O)N[C@H](C(=O)N[C@@H](CCC(=O)O)C(=O)N[C@@H](Cc1c[nH]c2ccccc12)C(=O)N[C@@H](CC(C)C)C(=O)N[C@@H](CCCNC(=N)N)C(=O)N[C@@H](CCCCN)C(=O)N[C@@H](CCCCN)C(=O)N[C@@H](CC(C)C)C(=O)N[C@@H](CCC(N)=O)C(=O)N[C@@H](CC(=O)O)C(=O)N[C@H](C(=O)N[C@@H](Cc1c[nH]cn1)C(=O)N[C@@H](CC(N)=O)C(=O)N[C@@H](Cc1ccc(O)cc1)C(N)=O)C(C)C)C(C)C [[Nle^8,18, Tyr^34]bPTH(1-34)] (H-AVSEIQF[Nle]HNLGKHLSS[Nle]ERVEWLRKKLQDVHNY-NH2; N-terminus and C-terminus assumed)",Emax,"rat PTH2 receptor; COS-7, read-out: Emax, % of response of hPTH2r to 1 μM hPTH(1-34), rat receptor response relative to human PTH2 receptor response measured in parallel",5 ± 1%
same,Emax,"rat PTH2 receptor; read-out: Emax, % of response of rPTH2r to 3 μM rPTH(1-34), intrinsic activity, COS-7",19 ± 3%
same,Emax,"PTH2 receptor [1]; read-out: Emax, % of response to 1 μM hPTH(1-34), intrinsic activity, COS-7",76 ± 7%
"CCCC[C@H](NC(=O)[C@H](CCCNC(=N)N)NC(=O)[C@H](CCC(=O)O)NC(=O)[C@@H](NC(=O)[C@H](CO)NC(=O)[C@H](C)NC(=O)[C@H](CC(C)C)NC(=O)[C@H](Cc1c[nH]cn1)NC(=O)[C@H](CCCCN)NC(=O)CNC(=O)[C@H](CC(C)C)NC(=O)[C@H](CC(N)=O)NC(=O)[C@H](Cc1c[nH]cn1)NC(=O)[C@H](CCCC)NC(=O)[C@H](CC(C)C)NC(=O)[C@H](CCC(N)=O)NC(=O)[C@@H](NC(=O)[C@H](CCC(=O)O)NC(=O)[C@H](CO)NC(=O)[C@@H](NC(=O)[C@H](C)N)C(C)C)[C@@H](C)CC)C(C)C)C(=O)N[C@@H](CCC(N)=O)C(=O)N[C@@H](Cc1c[nH]c2ccccc12)C(=O)N[C@@H](CC(C)C)C(=O)N[C@@H](CCCNC(=N)N)C(=O)N[C@@H](CCCCN)C(=O)N[C@@H](CCCCN)C(=O)N[C@@H](CC(C)C)C(=O)N[C@@H](CCC(N)=O)C(=O)N[C@@H](CC(=O)O)C(=O)N[C@H](C(=O)N[C@@H](Cc1c[nH]cn1)C(=O)N[C@@H](CC(N)=O)C(=O)N[C@@H](Cc1ccc(O)cc1)C(N)=O)C(C)C [[Nle^8,21, Tyr^34]rPTH(1–34), [Nle^8,21, Tyr^34]rPTH(1–34) amide]",IC50,PTH2 receptor [2],1.1 nM
same,shift (increase) of IC50 produced by 10 μM GTPγS,"PTH2 receptor [2]; centrifugation assay, [125I]TIP39",1.5 fold
PTHrP(1-34),"Emax, % of response of rPTH2r to 3 μM rPTH(1-34)","rat PTH2 receptor; intrinsic activity, COS-7",14 ± 1%
same,"Emax, % of response of hPTH2r to 1 μM hPTH(1-34)",rat PTH2 receptor; [5],7 ± 3%
same,higher potency for the rat receptor than the human receptor,rat PTH2 receptor; rat vs human PTH2 receptor EC50,14 fold
same,"Emax, % of response to 1 μM hPTH(1-34)","PTH2 receptor [1]; intrinsic activity, COS-7",25 ± 3%
PTHrP(7–34) amide,effect of human plasma on antagonist potency,human PTH1 receptor [3],did not reduce the antagonist potency
"[D-Tryp^12, Tyr^34]bPTH(7–34) amide [[D-Tryp^12, Tyr^34]PTH(7–34)]",effect of human plasma on antagonist potency,human PTH1 receptor [3],did not reduce the antagonist potency
same,difference of IC50 relative to TIP(7–39),human PTH1 receptor [4],7.3 fold
"[Nle^8,18, D-Tryp^12, Tyr^34]bPTH(7–34) amide",pA2,rat PTH2 receptor; [6],6.5±0.2
same,pA2 as concentration,rat PTH2 receptor; [6],310 nM
same,"basal cAMP accumulation, % of basal response in the absence of antagonist","rat PTH2 receptor; 1 μM antagonist, no rPTH(1–34)",104±11%
same,pA2,PTH2 receptor [1]; [6],6.5±0.1
same,pA2 as concentration,PTH2 receptor [1]; [6],320 nM
same,"basal cAMP accumulation, % of basal response in the absence of antagonist","PTH2 receptor [1]; 1 μM antagonist, no rPTH(1–34)",110±16%
hPTH(1-34),"Emax, % of response of rPTH2r to 3 μM rPTH(1-34)","rat PTH2 receptor; intrinsic activity, COS-7",43 ± 4%
same,"Emax, % of response of hPTH2r to 1 μM hPTH(1-34)",rat PTH2 receptor; [5],22 ± 7%
same,"Emax, % of response to 1 μM hPTH(1-34)","PTH2 receptor [1]; intrinsic activity, COS-7",100%
hPTH(1-84),"Emax, % of response of rPTH2r to 3 μM rPTH(1-34)","rat PTH2 receptor; intrinsic activity, COS-7",42 ± 5%
same,"Emax, % of response of hPTH2r to 1 μM hPTH(1-34)",rat PTH2 receptor; [5],15 ± 4%
same,"Emax, % of response to 1 μM hPTH(1-34)","PTH2 receptor [1]; intrinsic activity, COS-7",79 ± 1%
